Experiment: Thermo Gravimetric Analyzer (TGA) % volatiles (water)
Format: physicochemical
Conditions: 10° C./min to 110° C., isothermal hold 60 min
Procedure: 10 mg was collected for each sample. A heating ramp of 10° C./min from room temperature to 110° C. with an isothermal hold at 110° C. for 60 min was used in the analysis. Table 4 below depicts the % volatiles (water) which were found versus the theoretical values.

Structure (SMILES) | % Volatiles Found [%]
O=P([O-])([O-])O.[K+].[K+] [Potassium Phosphate Dibasic] | 2.7
O=S([O-])([O-])=S.[Na+].[Na+] [Sodium Thiosulfate] | 33

From patent publication US20100284912A1, “HOMOGENIZATION OF A RADIOPHARMACEUTICAL USING SONIFICATION AND/OR ROTOR-STATOR TECHNOLOGY TO PRODUCE A HOMOGENOUS SUSPENSION, EMULSION, MIXTURE OR SOLID SUSPENSION OF IMMISCIBLE INGREDIENTS” (BRACCO DIAGNOSTICS INC., priority 2007, published 2010)
